Results published in US9028845B2, “Chimeric immunomodulatory compounds and methods of using the same-IV” (Dynavax Technologies Corporation, priority 2001, dated 2015).

Columns and labels:
CD19+ B cells = test: Human B cell proliferation assay (3H-thymidine incorporation); conditions: 2 μg/ml
Protocol: Purified human B cells from 2 donors were stimulated with 5 μg/ml P-6 or CIC for 96 h. Proliferation was assessed by ^3H-thymidine incorporation.
A CIC is considered to induce “little” human B cell proliferation if B cell proliferation in the presence of the CIC is between greater than 15 to about 30% of P-6.
Human PBMCs were isolated from heparanized blood from two normal subjects. Some PBMCs were held in reserve while the remainder was incubated with CD19+ MACS beads (Miltenyi Biotec). These cells were then passed through a magnet, separating the CD19+ B cells through positive selection. […] B cells were then cultured at 1×10^5/200 μl/well in 96-well round-bottomed plates. In some cases, PBMCs were also cultured, but at 2×10^5/200 μl/well. Cells were stimulated in triplicate with 2 μg/ml polynucleotide or CIC. The culture period was 48 hours at 37° C. At the end of the culture period, the plates were pulsed with ^3H-thymidine, 1 μCi/well, and incubated for an additional 8 hours. Then the plates were harvested using standard liquid scintillation techniques and data was collected in counts per minutes (cpm).

human PBMCs = test: Human PBMC cytokine response assay (IFN-γ and IFN-α in cell-free medium by ELISA), with or without cPLGA; assay type: cell-based;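 as to IFN-α (pg/ml) mean: 20 µg/mL compound for 24 hours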;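 as to IFN-γ (pg/ml) mean: 20 µg/mL compound for 24 hours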
PBMCs = test: Human PBMC proliferation assay (3H-thymidine incorporation); assay type: cell-based; conditions: Experiment A; for mean cpm: 2 μg/ml
[1] = B cells, Donor 146, Experiment A
[2] = B cells, Donor 147, Experiment A
[3] = Table 24, mean of donors 28234-28237
[4] = Table 25, mean of donors 28250-28253
[5] = donor 28066, 20 ug/ml, 24 h, + PLGA = premixed with 100 μg/ml cPLGA
[6] = donor 28067, 20 ug/ml, 24 h, + PLGA = premixed with 100 μg/ml cPLGA
[7] = donor 28068, 20 ug/ml, 24 h, + PLGA = premixed with 100 μg/ml cPLGA
[8] = mean of donors 28065-28068, 20 ug/ml, 24 h, + PLGA = premixed with 100 μg/ml cPLGA
[9] = mean of donors 28185-28188, Table 15

Question: Which results are given for “5′-TCGTCGA-3′-HEG-5′-TCGTCGA-3′-HEG-5′-TCGTCGA-3′ [Compound C-21]”?
Answer: B cell proliferation, in words (CD19+ B cells; 48 h plus 8 h 3H-thymidine pulse): cause B cells to proliferate; cpm1 (CD19+ B cells; [1]): 28467 cpm; cpm2 (CD19+ B cells; [1]): 16074 cpm; cpm3 (CD19+ B cells; [1]): 19258 cpm; mean cpm (CD19+ B cells; B cells, Donor 146 mean, Experiment A): 21266 cpm; cpm1 (CD19+ B cells; [2]): 17604 cpm; cpm2 (CD19+ B cells; [2]): 18851 cpm; cpm3 (CD19+ B cells; [2]): 19887 cpm; mean cpm (CD19+ B cells; B cells, Donor 147 mean, Experiment A): 18781 cpm; mean of both (CD19+ B cells; B cells, mean of Donors 146 and 147, Experiment A): 20024 cpm; IFN-α (human PBMCs; Table 9, donor 28089): 56 pg/mL; IFN-γ (human PBMCs; Table 9, donor 28089): 61 pg/mL; IFN-α (human PBMCs; Table 9, donor 28090): 157 pg/mL; IFN-γ (human PBMCs; Table 9, donor 28090): 68 pg/mL; IFN-α (human PBMCs; Table 9, donor 28098): 286 pg/mL; IFN-γ (human PBMCs; Table 9, donor 28098): 218 pg/mL; IFN-α (human PBMCs; Table 9, donor 28099): 466 pg/mL; IFN-γ (human PBMCs; Table 9, donor 28099): 124 pg/mL; IFN-α mean (human PBMCs; Table 9, mean of donors): 241 pg/mL; IFN-γ mean (human PBMCs; Table 9, mean of donors): 118 pg/mL; IFN-α (human PBMCs; Table 10, donor 28042): 57 pg/mL; IFN-γ (human PBMCs; Table 10, donor 28042): 790 pg/mL; IFN-α (human PBMCs; Table 10, donor 28043): 72 pg/mL; IFN-γ (human PBMCs; Table 10, donor 28043): 1519 pg/mL; IFN-α (human PBMCs; Table 10, donor 28044): 79 pg/mL; IFN-γ (human PBMCs; Table 10, donor 28044): 1198 pg/mL; IFN-α (human PBMCs; Table 10, donor 28045): 15 pg/mL; IFN-γ (human PBMCs; Table 10, donor 28045): 177 pg/mL; IFN-α mean (human PBMCs; Table 10, mean of donors): 56 pg/mL; IFN-γ mean (human PBMCs; Table 10, mean of donors): 921 pg/mL; IFN-α (human PBMCs; Table 11, donor 28042): 146 pg/mL; IFN-γ (human PBMCs; Table 11, donor 28042): 572 pg/mL; IFN-α (human PBMCs; Table 11, donor 28043): 94 pg/mL; IFN-γ (human PBMCs; Table 11, donor 28043): 460 pg/mL; IFN-α (human PBMCs; Table 11, donor 28044): 191 pg/mL; IFN-γ (human PBMCs; Table 11, donor 28044): 4000 pg/mL; IFN-α (human PBMCs; Table 11, donor 28045): 349 pg/mL; IFN-γ (human PBMCs; Table 11, donor 28045): 1644 pg/mL; IFN-α mean (human PBMCs; Table 11, mean of donors): 195 pg/mL; IFN-γ mean (human PBMCs; Table 11, mean of donors): 1669 pg/mL; IFN-α (human PBMCs; Table 24, donor 28234): 16 pg/mL; IFN-γ (human PBMCs; Table 24, donor 28234): 4 pg/mL; IFN-α (human PBMCs; Table 24, donor 28235): 16 pg/mL; IFN-γ (human PBMCs; Table 24, donor 28235): 107 pg/mL; IFN-α (human PBMCs; Table 24, donor 28236): 73 pg/mL; IFN-γ (human PBMCs; Table 24, donor 28236): 308 pg/mL; IFN-α (human PBMCs; Table 24, donor 28237): 678 pg/mL; IFN-γ (human PBMCs; Table 24, donor 28237): 1645 pg/mL; IFN-α mean (human PBMCs; [3]): 196 pg/mL; IFN-γ mean (human PBMCs; [3]): 516 pg/mL; IFN-a (human PBMCs; Table 25, donor 28250): 31 pg/mL; IFN-g (human PBMCs; Table 25, donor 28250, polynucleotides/spacers at amounts equivalent to the CIC, spacers alone 9 uM): 122 pg/mL; IFN-a (human PBMCs; Table 25, donor 28251): 69 pg/mL; IFN-g (human PBMCs; Table 25, donor 28251): 51 pg/mL; IFN-a (human PBMCs; Table 25, donor 28252): 41 pg/mL; IFN-g (human PBMCs; Table 25, donor 28252): 155 pg/mL; IFN-a (human PBMCs; Table 25, donor 28253): 264 pg/mL; IFN-g (human PBMCs; Table 25, donor 28253): 203 pg/mL; IFN-a mean (human PBMCs; [4]): 101 pg/mL; IFN-g mean (human PBMCs; [4]): 133 pg/mL; IFN-γ (pg/ml) 28065 (human PBMCs; donor 28065 (high background), 20 ug/ml, 24 h, + PLGA = premixed with 100 μg/ml cPLGA, 1000 = outside assay limits): 653 pg/mL; IFN-α (pg/ml) 28065 (human PBMCs; donor 28065, 20 ug/ml, 24 h, + PLGA = premixed with 100 μg/ml cPLGA): 227 pg/mL; IFN-α (pg/ml) 28066 (human PBMCs; [5]): 24 pg/mL; IFN-γ (pg/ml) 28066 (human PBMCs; [5]): 16 pg/mL; IFN-α (pg/ml) 28067 (human PBMCs; [6]): 183 pg/mL; IFN-γ (pg/ml) 28067 (human PBMCs; [6]): 24 pg/mL; IFN-α (pg/ml) 28068 (human PBMCs; [7]): 769 pg/mL; IFN-γ (pg/ml) 28068 (human PBMCs; [7]): 960 pg/mL; IFN-a (human PBMCs; donor 28185, Table 15): 443 pg/mL; IFN-g (human PBMCs; donor 28185, Table 15): 244 pg/mL; IFN-a (human PBMCs; donor 28186, Table 15): 64 pg/mL; IFN-g (human PBMCs; donor 28186, Table 15): 37 pg/mL; IFN-a (human PBMCs; donor 28187, Table 15): 1 pg/mL; IFN-g (human PBMCs; donor 28187, Table 15): 125 pg/mL; IFN-a (human PBMCs; donor 28188, Table 15): 4 pg/mL; IFN-g (human PBMCs; donor 28188, Table 15): 7 pg/mL; IFN-α (pg/ml) mean (human PBMCs; [8]): 300 pg/mL; IFN-γ (pg/ml) mean (human PBMCs; [8]): 413 pg/mL; IFN-a (pg/ml) mean (human PBMCs; [9]): 128 pg/mL; IFN-g (pg/ml) mean (human PBMCs; [9]): 103 pg/mL; IFN-a (pg/ml) ×2 (human PBMCs; mean ×2, Table 15): 256 pg/mL; IFN-g (pg/ml) ×4 (human PBMCs; mean ×4, Table 15): 413 pg/mL; immunomodulatory activity (IFN-γ / IFN-α secretion), in words (human PBMCs; used alone (no cPLGA)): more active than other CG-containing CICs; cpm1 (PBMCs; Donor 146, 2 μg/ml): 30338 cpm; cpm2 (PBMCs; Donor 146, 2 μg/ml): 22685 cpm; cpm3 (PBMCs; Donor 146, 2 μg/ml): 22383 cpm; mean cpm (PBMCs; Donor 146 mean): 25135 cpm; cpm1 (PBMCs; Donor 147, 2 μg/ml): 28819 cpm; cpm2 (PBMCs; Donor 147, 2 μg/ml): 530 cpm; cpm3 (PBMCs; Donor 147, 2 μg/ml): 37088 cpm; mean cpm (PBMCs; Donor 147 mean): 22146 cpm; mean of both (PBMCs; mean of Donors 146 and 147, 2 μg/ml): 23641 cpm
